The text below walks through data of patent US10155802B2, “Locally-active anticoagulants and anti-inflammatory agents” (priority 2011, dated 2018).

The subject of assay [1] is pooled human plasma. The experiment in a line: Prothrombin time (PT, thromboplastin) clotting assay. Format: biochemical. As to the method:
(§1) Prothrombin (clotting) time (PT) or activated partial thromboplastin (clotting) time (APTT) assays were carried out at certain concentrations of the thrombin inhibitors of the present invention using pooled human plasma with addition of thromboplastin or activated partial thromboplastin to initiate clotting. The assays employed kits from Biopool International (Ventura, Calif., USA) or from Pacific Haemostasis (Middletown, Va., USA) using the procedures supplied by the manufacturer. Briefly, the stock solution of an inhibitor (with the concentration determined using UV-based OD determination, see Gill 1989) is diluted in a buffer of 20 mM HEPES and 150 mM NaCl at pH 7.4 (HBS) to a final volume of 50 μL, to which is added the reconstituted normal plasma (Product #CMS-176172 from Fisher Scientific) in an equal volume. This solution mixture is equilibrated at 37° C. for 2 minutes before 50 μL of the APTT-10XL solution (CMS-022927) is introduced forcibly to ensure proper mixing. This new mixture was incubated at 37° C. for another 5 minutes, which is followed by the addition of 50 μL of 0.02 M […] (Fisher Scientific CMS-022925) pre-warmed at 37° C. For the prothrombin time (PT) assay, an inhibitor is diluted in HBS to a final volume of 25 μL, to which is added the reconstituted control plasma (Fisher Scientific CMS-176172) in an equal volume. This solution mixture is equilibrated at 37° C. for 5 minutes before addition of 100 μL of the thromboplastin solution (CMS-176099) pre-warmed at 37° C. For APTT assays, inhibitory activities of the peptides are expressed as concentrations needed to achieve 50% of the maximum delay in clotting time (MCT50) as compared to the absence of thrombin inhibitors (Maraganore 1989). For PT assays, inhibitory activities are measured as the concentrations of the peptides that prolong the clotting time by 50% (IC50) of that of the normal control plasma (Maraganore 1990). PT and APTT assays were also carried out using slightly modified experimental procedures. Thus, 50 μL of a control plasma (Pacific Hemostasis) solution was added to 100 μL HBS (20 mM HEPES and 150 mM NaCl at pH 7.4) containing varied concentrations of the peptides of this invention. After incubation at 37° C. for 5 min, the mixture was added to 50 μL of the thromboplastin or activated partial thromboplastin reagent. Clotting of the plasma was monitored by change in absorbance at 420 nm using a SpectraMax™ plate reader.

Assay [2] deals with FeCl3-induced venous thrombosis (vena cava). The experiment in a line: FeCl3-induced venous model of thrombosis in rats (thrombus weight). Format: in vivo. To be noted: rat, single-bolus injection via tail vein. As to the method:
(§2) Male Sprague-Dawley rats (250-310 g; Charles River Laboratories, St-Constant, QC, Canada) were acclimated for at least 3 days prior to the start of the study. Animals were housed in microisolator cages and were kept on a 12-hr light/dark cycle with constant temperature and humidity. Food and water were provided ad libitum. Various anti-thrombotic agents and peptides of this invention were dissolved in saline (0.9% sodium chloride) prior to use.
The FeCl3-induced venous model of thrombosis in rats was generated as described by Wang and Xu (Wang 2005) with some modifications (Couture 2011). Briefly, rats were anesthetized with a 2.5% isoflurane/oxygen mixture and placed on a heat source (35-37° C.). The vena cava was then exposed via a midline incision and the region between the renal and iliolumbar veins was isolated. […]
Protein content of the thrombus was also measured according to protocol by Wang (Wang 2005). […] Contents of amino acids and small peptides were measured at OD280 with digestion buffer used as a blank.
(§3) Statistical analysis was conducted using GraphPad™ Prism (GraphPad Software Inc., San Diego Calif., USA). Data were analyzed using one-way ANOVA with post-hoc Bonferroni correction for multiple comparisons. The relationship between thrombus weight and thrombus volume was determined by linear regression. […]

Assay [3] has as its system fresh blood withdrawn from rats with venous thrombosis. The experiment in a line: Clotting time (aPTT) of fresh blood withdrawn from treated rats. Format: in vivo. To be noted: rat, 0.2 mg/kg bolus + 0.00433 mg/kg/min infusion; 20 minutes after administration versus before. As to the method:
FIG. 23 illustrates the clotting times (aPTT) determined for fresh blood withdrawn from rats with venous thrombosis at three time points, the first before drug administration and vessel injury, the second at 20 minutes after FeCl3 application and the third 60 minutes following injection of the respective thrombin inhibitors. Clotting times (aPTT) are shown for different rats administered with each thrombin inhibitor, ZIP4 for MH2-wZIP4, ZIP5 for MH2-wZIP5 and T218 for BRI-T218. Dosage levels for every compound were 0.2 mg/kg for the single-bolus injection and 0.00433 mg/kg/min for the maintenance infusion,
Terminal blood samples were analyzed for aPTT within 15 to 30 minutes of collection using a Coag DX Analyzer with aPTT citrate cartridges (IDEXX Laboratories, Westbrook, Me., USA).

Assay [4] concerns pooled human plasma. The experiment in a line: Activated partial thromboplastin time (APTT) clotting assay. The format is biochemical. The note with it: 37° C.; concentration for 50% of maximum delay in clotting time; read-out: MTC50 (APTT). As to the method:
as §1

In assay [5] the target is T1, thrombin (Homo sapiens, UniProt P00734). The experiment in a line: Fibrinogen clotting assay (concentration needed to double the clotting time = IC50). Format: biochemical. The note with it: IC50 (anti-clotting), T = 37° C. As to the method: The same enzyme kinetic assays were used to determine the inhibitory activities of MH2 and two MH2-derived peptides, MH2-allGS and MH2-GS (Table 4). Clotting assays were carried out to determine the inhibitory activities of the rest of the MH2 peptides by use of the protocols described previously (DiMaio 1990; Taka 2000; Su 2004). The assay employs bovine plasma fibrinogen dissolved at 0.1% in 50 mM Tris-Cl, 100 mM NaCl, 0.1% PEG-8000 at pH 7.6 (i.e. the clotting buffer). In addition to the use of optical densities or ODs (Gill 1989), concentrations of the peptide stock solutions were ranked (and corrected when necessary) by use of quantitative proton NMR spectroscopy (Cavaluzzi 2002). Each assay mixture contained a certain concentration of the peptide, and the reaction was started by the addition of human thrombin to a final concentration of approximately 0.5 nM. Optical absorbance of the assay mixtures was measured at 420 nm using the Spectramax™ plate reader. The onset clotting time was determined as an intersection of the baseline and the tangent line at point of inflection of the clotting curve. The concentration of an MH2 peptide needed to double the clotting time was defined as IC50 (DiMaio 1990) as illustrated in FIG. 4 and summarized in Table 4. The correlation between IC50 values and linker unfolding is similar to that for the BTI series of inhibitors (Table 3). […] (Table 3).

The target of assay [6] is T1, thrombin. The experiment in a line: Cleavage of thrombin-sensitive peptides catalyzed by thrombin, followed by HPLC. The format is biochemical. Also on record: rapidly converts prothrombin into the ultimate protease thrombin. The note with it: 75 μM peptide, 23 nM thrombin, pH 7.6, 37° C.
Assay [7] has as its system FeCl3-induced arterial thrombosis (carotid artery). The experiment in a line: FeCl3-induced arterial model of thrombosis in rats (time to occlusion). The format is in vivo. The note with it: rat, single bolus 0.2 mg/kg plus maintenance infusion 0.00433 mg/kg/min. The method, then:
as §2
The FeCl3-induced arterial model of thrombosis in rats was also generated as described by Wang and Xu (Wang 2005) with some modifications (Couture 2011). Briefly, rats were anesthetized with a 2.5% isoflurane/oxygen mixture and placed on a heat source (35-37° C.). An incision was made over the right carotid artery, and a segment of the artery was exposed via blunt dissection. A Doppler flow probe (Model MA1PRB, Transonic System Inc., Ithaca, N.Y., USA) connected to a perivascular flow module (TS420, Transonic System Inc., Ithaca, N.Y., USA) was then attached to the carotid artery to monitor blood flow. Data were collected and analyzed using the MP100 Biopac™ Systems (Biopac Systems, Santa Barbara, Calif., USA), and the AcgKnowledge™ software (Biopac Systems, Santa Barbara, Calif., USA), respectively. Baseline blood flow was recorded for a minimum of 15 minutes until readings stabilized. Aquasonic 100 gel (Parker Laboratories, Inc., Fairfield, N.J., USA) was added to help conductivity and any fluid accumulating at the site of surgery was removed during data sampling without touching the probe. […] One minute after drug administration, a piece of filter paper (Gel Blot Paper, GB003, Whatman, Piscataway, N.J., USA; 7 mm diameter) saturated with 20% FeCl3 (EMD Chemicals Inc., Gibbstown, N.J., USA) was placed on the exposed surface of the carotid artery and incubated for 3.5 minutes. During the application of FeCl3, the neck region was covered with aluminum foil. At the end of the incubation period, the filter paper was removed and the exposed carotid was covered with a saline-soaked gauze. Time to occlusion was defined as the time from the application of FeCl3 until blood flow decreased to zero. […] Preparing and processing each animal took approximately 1 hr and 7 animals were treated each day. Control animals were always included when the other treatments were being administered. For this reason, the number of animals in the control group is higher than that of the treated-groups.
as §3

The target in another assay is T2, Human α-thrombin (Homo sapiens, UniProt P00734).
T2 construct: Human α-thrombin was purchased from Haemotologic Technologies, Inc., VT, USA; purchased Haemotologic Technologies, Inc., VT, USA
The experiment in a line: Inhibition of thrombin-catalyzed hydrolysis of chromogenic substrate S-2366 (inhibition constant Ki). Format: biochemical. The note with it: Ki, T = 37° C.; enzyme kinetics, chromogenic substrate.

Molecules are shown by their SMILES. Values joined by “and” are separate entries in the source; they are usually repeats but may differ in a detail not shown here. Equal values may be shown once. “Also recorded” adds a separate entry of the source. Some results are limits rather than exact numbers.

Turning to `CC[C@H](C)[C@H](N)C(=O)N[C@@H](CCCNC(=N)N)C(=O)N[C@@H](Cc1ccccc1)C(=O)N[C@H](C(=O)N[C@@H](CC(=O)O)C(=O)NCC(=O)N[C@@H](CCC(=O)O)C(=O)N[C@@H](Cc1c[nH]c2ccccc12)C(=O)N[C@H](C(=O)N[C@@H](Cc1ccc(O)cc1)C(=O)N[C@@H](CC(=O)O)C(=O)N[C@@H](CC(=O)O)C(=O)N[C@@H](C)C(=O)N[C@H](C(=O)N[C@@H](CCCCN)C(=O)N[C@H](C(=O)N[C@@H](Cc1ccccc1)C(=O)N[C@H](C(=O)N[C@@H](Cc1c[nH]c2ccccc12)C(=O)N[C@H](C(=O)N[C@@H](CCC(=O)O)C(=O)NCC(=O)N[C@@H](CC(=O)O)C(=O)N[C@@H](Cc1ccccc1)C(=O)N[C@@H](CCC(=O)O)C(=O)N[C@@H](CCC(=O)O)C(=O)N[C@H](C(=O)N1CCC[C@H]1C(=O)N[C@@H](CCC(=O)O)C(=O)N[C@@H](CCC(=O)O)C(=O)N[C@@H](Cc1ccc(O)cc1)C(=O)N[C@@H](CC(C)C)C(=O)N[C@@H](CCC(N)=O)C(=O)O)[C@@H](C)CC)[C@@H](C)O)[C@@H](C)O)[C@@H](C)O)[C@@H](C)O)[C@@H](C)O)[C@@H](C)O` [MH2-wZIP5], in the assay on pooled human plasma [1], the “concentrations required in PT-APTT curves relative to MH2-GS” value was “about 2.5 times”. The IC50 is under 300 nM with pooled human plasma [1] (37° C., concentration that prolongs clotting time by 50%) and 107 nM at thrombin [5]. Further, in assay [2], the “reduction of thrombus weight, venous model” value is “comparable to MH2-wZIP4”. The “clotting time (aPTT), systemic anticoagulant effect” value in assay [3] is “only a slight prolongation of the clotting time (aPTT)”. Also, in the assay with pooled human plasma [4], the EC50 is 2000 nM.
For `CC[C@H](C)[C@H](NC(=O)[C@H](CCCNC(=N)N)NC(=O)[C@@H]1CCCN1C(=O)[C@H](N)Cc1ccccc1)C(=O)N[C@@H](CCCNC(=N)N)C(=O)N[C@@H](Cc1ccccc1)C(=O)N[C@H](C(=O)N[C@@H](CC(=O)O)C(=O)NCC(=O)N[C@@H](CCC(=O)O)C(=O)N[C@@H](Cc1c[nH]c2ccccc12)C(=O)N[C@H](C(=O)N[C@@H](Cc1c[nH]c2ccccc12)C(=O)N[C@@H](CC(=O)O)C(=O)N[C@@H](CC(=O)O)C(=O)N[C@@H](C)C(=O)N[C@H](C(=O)N[C@@H](CCCCN)C(=O)N[C@H](C(=O)N[C@@H](Cc1c[nH]c2ccccc12)C(=O)N[C@H](C(=O)N[C@@H](Cc1c[nH]c2ccccc12)C(=O)N[C@H](C(=O)N[C@@H](CCC(=O)O)C(=O)NCC(=O)N[C@@H](CC(=O)O)C(=O)N[C@@H](Cc1ccccc1)C(=O)N[C@@H](CCC(=O)O)C(=O)N[C@@H](CCC(=O)O)C(=O)N[C@H](C(=O)N1CCC[C@H]1C(=O)N[C@@H](CCC(=O)O)C(=O)N[C@@H](CCC(=O)O)C(=O)N[C@@H](Cc1ccc(O)cc1)C(=O)N[C@@H](CC(C)C)C(=O)O)[C@@H](C)CC)[C@@H](C)O)[C@@H](C)O)[C@@H](C)O)[C@@H](C)O)[C@@H](C)O)[C@@H](C)O` [BRI-T218], the “clotting time (aPTT), systemic anticoagulant effect” value in assay [3] is “only a slight prolongation of the clotting time (aPTT)”. For the same compound, on thrombin [6], the cleavage by thrombin entry is on record as “completely converted to the cleavage products within two hours; also recorded: almost completion of the cleavage reaction after 2 hours of incubation”. Moreover, the “anti-thrombotic efficacy in arterial model” value in assay [7] is “appears to restore the anti-thrombotic activity; also recorded: increases the efficacy”. Also, the Ki at Human α-thrombin was ~14 nM and 14 nM.

Usually IC50 stands for the concentration needed to halve the response being measured. One may read the Ki as a dissociation constant, usually derived from enzyme kinetics or from competition with a known ligand.
